Data: ChEMBL document CHEMBL1145151, “2-Arylpropionic CXC chemokine receptor 1 (CXCR1) ligands as novel noncompetitive CXCL8 inhibitors” (J Med Chem, 2005)
Activity calls are given as the source filed them. The rule behind the calls is not given here.

Molecular target: T1, Interleukin-8 receptors, CXCR1/CXCR2 (Homo sapiens, UniProt P25025+P25024)
T1 sequence (P25025 whole entry): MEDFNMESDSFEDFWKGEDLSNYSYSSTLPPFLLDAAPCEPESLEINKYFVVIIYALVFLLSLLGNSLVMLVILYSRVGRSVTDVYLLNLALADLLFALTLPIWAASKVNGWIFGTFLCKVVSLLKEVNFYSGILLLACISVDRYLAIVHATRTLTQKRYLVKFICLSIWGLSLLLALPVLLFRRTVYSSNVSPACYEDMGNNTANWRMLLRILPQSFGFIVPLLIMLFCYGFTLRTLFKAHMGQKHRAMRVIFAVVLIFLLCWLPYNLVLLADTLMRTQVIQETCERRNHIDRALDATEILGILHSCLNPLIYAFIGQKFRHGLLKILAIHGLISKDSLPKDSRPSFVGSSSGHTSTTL
T1 sequence (P25024 whole entry): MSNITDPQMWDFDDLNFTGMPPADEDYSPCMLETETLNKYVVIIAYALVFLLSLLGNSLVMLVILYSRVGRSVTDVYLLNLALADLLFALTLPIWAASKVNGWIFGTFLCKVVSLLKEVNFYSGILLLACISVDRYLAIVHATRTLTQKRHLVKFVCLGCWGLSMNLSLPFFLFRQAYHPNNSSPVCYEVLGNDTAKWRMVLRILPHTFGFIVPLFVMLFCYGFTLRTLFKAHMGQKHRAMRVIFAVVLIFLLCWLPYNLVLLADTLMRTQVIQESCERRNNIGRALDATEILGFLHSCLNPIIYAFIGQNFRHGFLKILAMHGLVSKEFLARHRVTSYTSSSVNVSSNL
Experiment: Inhibition of CXCL8-induced chemotaxis in human polymorphonuclear cells
Assay type: functional

Row | IC50 [nM] | SMILES
1 | 1.8 | CONC(=O)[C@H](C)c1ccc(CC(C)C)cc1

Molecular target: T2, Interleukin-8 receptors, CXCR1/CXCR2 (Homo sapiens) (UniProt P25025+P25024)
Experiment: Inhibition of CXCL8-induced chemotaxis of human polymorphonuclear cells at 10e-6 M: not active
Assay type: functional

Row | inhibition | SMILES
2 | inactive | CC(C(=O)NS(C)(=O)=O)c1ccc2c(c1)[nH]c1ccc(Cl)cc12 (centres undefined)

Molecular target: T2, Interleukin-8 receptors, CXCR1/CXCR2 (Homo sapiens)
Experiment: Inhibition of CXCL8-induced chemotaxis of human polymorphonuclear cells at 10e-8 M: not active
Assay type: functional

Row | SMILES | inhibition
3 | CC(C)Cc1ccc([C@@H](C)C(=O)NC2CCOC2)cc1 (some centres undefined) | inactive
4 | CC(C(=O)O)c1ccc(-c2cccs2)cc1 (centres undefined) | inactive
5 | CC(C)Cc1ccc([C@@H](C)C(=O)NS(=O)(=O)Cc2cccnc2)cc1 | inactive
6 | CC(C(=O)O)c1ccc(O)cc1 (centres undefined) | inactive
7 | CC(C)Cc1cccc(C(C)C(=O)O)c1 (centres undefined) | inactive
8 | CC(C)Cc1ccc([C@@H](C)C(=O)N2CCCCC2)cc1 | inactive
9 | CCCCc1cccc(C(C)C(=O)O)c1 (centres undefined) | inactive
10 | CC(C(=O)O)c1ccc(CC2CCCCC2)cc1 (centres undefined) | inactive
11 | CC(=O)c1cccc(C(C)C(=O)O)c1 (centres undefined) | inactive
12 | C/C=C/c1cccc(C(C)C(=O)O)c1 (centres undefined) | inactive
13 | CC(C)Cc1ccc([C@@H](C)C(=O)NS(=O)(=O)Cc2ccc(Cl)cc2)cc1 | inactive
14 | CC(C)Cc1ccc([C@@H](C)C(=O)NS(=O)(=O)CCCN2C(=O)c3ccccc3C2=O)cc1 | inactive
15 | CC(C(=O)O)c1ccc(Cc2ccccc2)cc1 (centres undefined) | inactive
16 | CC(C(=O)O)c1ccc(C(C)(C)C)cc1 (centres undefined) | inactive
17 | CC(C(=O)O)c1ccc(-c2ccccc2)cc1 (centres undefined) | inactive
18 | CC(C(=O)O)c1cccc(C(=O)O)c1 (centres undefined) | inactive
19 | CC(C)Cc1ccc([C@@H](C)C(=O)NC2CCOCC2)cc1 | inactive
20 | CC(C)Cc1ccc([C@@H](C)C(=O)NS(=O)(=O)c2ccccc2)cc1 | inactive

The next lines start with the values.

Row | inhibition | SMILES
21 | inactive | CC(C)Cc1ccc([C@@H](C)C(=O)NS(=O)(=O)CCCN)cc1
22 | inactive | CC(C)Cc1ccc([C@@H](C)C(=O)NCCC(=O)O)cc1
23 | inactive | CC(C)Cc1ccc([C@@H](C)C(=O)NC(C)C(=O)O)cc1 (single isomer, unassigned)
24 | inactive | CC(C)Cc1ccc([C@@H](C)C(=O)NCCCN)cc1
25 | inactive | CC(C)Cc1ccc([C@@H](C)C(=O)NC2CCN(C)C2)cc1 (some centres undefined)
26 | inactive | CC(C)Cc1ccc([C@@H](C)C(=O)N[C@H](CS)C(=O)O)cc1
27 | inactive | COC(=O)C(C)c1ccc(CC(C)C)cc1 (centres undefined)
28 | inactive | CC(C)Cc1ccc([C@@H](C)C(=O)NS(=O)(=O)C(F)(F)F)cc1
29 | inactive | CC(C)Cc1ccc([C@@H](C)C(=O)NCCCC(=O)O)cc1
30 | inactive | CC(C)Cc1ccc([C@@H](C)C(=O)NCCCCCO)cc1
31 | inactive | CC(C)Cc1ccc([C@@H](C)C(=O)N(C)C)cc1
32 | inactive | COC(=O)[C@@H](C)NC(=O)[C@H](C)c1ccc(CC(C)C)cc1
33 | inactive | CC(C)Cc1ccc([C@@H](C)C(=O)NCCC[N+](C)(C)C)cc1
34 | inactive | COC(=O)CNC(=O)[C@H](C)c1ccc(CC(C)C)cc1

Molecular target: T2, Interleukin-8 receptors, CXCR1/CXCR2 (Homo sapiens)
Experiment: Inhibition of interleukin-8 induced chemotaxis of human polymorphonuclear cells at 10 nM

Row | SMILES | inhibition [%]
35 | CC(C(=O)O)c1cccc(Cc2ccccc2)c1 (centres undefined) | 30
36 | CC(C)Cc1ccc([C@@H](C)C(=O)Nc2ccccc2)cc1 | 30
37 | CCC(C)c1cccc(C(C)C(=O)O)c1 (centres undefined) | 50
38 | C[C@@H](C(=O)NS(C)(=O)=O)c1ccc(-c2ccccc2)c(F)c1 | 30
39 | CC(C)c1ccc(C(C)C(=O)O)cc1 (centres undefined) | 32
40 | C[C@H](C(=O)NS(C)(=O)=O)c1ccc(-c2ccccc2)c(F)c1 | 19
41 | CC(C)Oc1ccc(C(C)C(=O)O)cc1 (centres undefined) | 38

More lines, now with the values ahead:

Row | inhibition [%] | SMILES
42 | 26 | CCNC(=O)[C@H](C)c1ccc(CC(C)C)cc1
43 | 40 | CNC(=O)[C@H](C)c1ccc(CC(C)C)cc1
44 | 40 | CCS(=O)(=O)NC(=O)[C@H](C)c1ccc(CC(C)C)cc1
